Experiments:
Acute toxicity test = conditions: mouse, in vivo, ip; male S.P.P. mice, abdominally administered; Table 11
Experimental: The acute toxicity test was carried out by abdominally administering each test drug to male S.P.P. mice and determining an LD50 value.

bile secretion = test: Cholagogic action, bile secretion (Experimental Example 5); assay type: in vivo, male Wistar rats; conditions: intraduodenal
Experimental: After male Wistar rats 7 weeks old were fasted for 24 hours, they were anesthetized by the interperitoneal administration of 1.25 g/kg (volume 2 m.iota./kg) of urethane. A polyethylene canula (SP-10, a product of Natsume Seisakusho) was inserted into a bile duct and after the bile was caused to flow out for 30 minutes, the bile was collected in the cource of 1 hour. Thereafter, each test drug was suspended or dissolved in a 1% aqueous Tween-80 solution, and was administered into the duodenum at a rate of 5 m.iota./kg. Furthermore, the bile was collected every hour in the course of five hours, and its weight was measured. Only a 1% Tween-80 solution was given as a control.
The results are tabulated in Tables 6, 7, 8, 9 and 10, wherein the bile secretion amount every hour was represented by a percentage with the bile secretion amount (mg) one hour before the dose of the test drug being 100.

hyperlipemia = test: Anti-hyperlipemia test in rats on high fat food (Experimental Example 1); assay type: in vivo, Male Wistar rats; conditions: peroral once a day, two weeks, control 100, Table 1
Source text: Male Wistar rats 6.5 weeks old were allowed to freely intake a high fat food (containing 1% of cholesterol, 0.5% of sodium cholate, 12% of beef tallow and 20% of standard chow) in the cource of two weeks, to thus cause an outbreak of hyperlipemia. The dose of the drug was started simultaneously with the application of the high fat food, and was perorally given once a day through a stomach tube until the end of the experiment. The drugs were all suspended in a cane sugar fatty acid ester and were administered. The oily compounds were adjusted in advance to 100 mg/m.iota. by diethyl ether. A suitable amount was collected at the time of the dose and after diethyl ether was evaporated and removed, it was suspended in a cane sugar fatty acid ester (1% ryoto sugar ester) and then given. After the final dose of the drug, the rats were fasted for about 18 hours, and the blood was sampled to measure the blood serum lipid. The blood serum lipid was measured by using a TBA-380 biochemical analyzer (a product of Toshiba Medical Co.,) unless a particular hindrance occurred.

[1] = 0-1 hour after dose, control 81.1, Table 9
[2] = 1-2 hour after dose, control 66.6, Table 9
[3] = 2-3 hour after dose, control 55.8, Table 9
[4] = 3-4 hour after dose, control 49.0, Table 9
[5] = 4-5 hour after dose, control 42.8, Table 9

Row | SMILES | LD50 (Acute toxicity test) [mg/kg] | Bile secretion amount, percentage of the hour before dose (bile secretion; [1]) [%] | Bile secretion amount, percentage of the hour before dose (bile secretion; [2]) [%] | Bile secretion amount, percentage of the hour before dose (bile secretion; [3]) [%] | Bile secretion amount, percentage of the hour before dose (bile secretion; [4]) [%] | Bile secretion amount, percentage of the hour before dose (bile secretion; [5]) [%] | also measured
1 | COC(=O)C1=CO[C@@H](OC2CCCCO2)[C@@H]2C(CO)=CC[C@H]12 (single isomer, unassigned) [Definite Example 16] | 412 |  |  |  |  |  | 
2 | COC(=O)C1=COC(=O)[C@H]2[C@@H]1CC[C@@H]2C [Definite Example 5, methyl (4aS, 7S, 7aR)-1,4a, 5,6,7,7a-hexahydro-7-methyl-1-oxocyclopenta[c]pyran-4-carboxylate] |  | 105.0 | 78.0 | 62.0 | 52.6 | 45.1 | 
3 | COC(=O)C1=CO[C@@H](O[C@@H]2O[C@H](CO)[C@@H](O)[C@H](O)[C@H]2O)[C@@H]2C(C)=CC[C@H]12 [Definite Example 8, methyl (1S, 4aS, 7aS)-1-(β-D-glucopyranosyloxy)-1,4a, 5,7a-tetrahydro-7-methylcyclopenta[c]pyran-4-carboxylate] |  | 85.0 | 71.7 | 60.1 | 50.6 | 44.4 | Blood serum cholesterol (%) (hyperlipemia; 10 mg/kg): 94.4%; Blood serum triglyceride (%) (hyperlipemia; 10 mg/kg): 82.5%; Blood serum cholesterol (%) (hyperlipemia; 30 mg/kg): 54.8%; Blood serum triglyceride (%) (hyperlipemia; 30 mg/kg): 68.7%
4 | COC(=O)C1=COC2OCC3CCC1C32 [Definite Example 12, methyl (iS, 4aS, 7R, 7aS)-1,7-(epoxymethano)-1,4a, 5,6,7,7a-hexahydrocyclopenta[c]pyran-4-carboxylate] | 527 |  |  |  |  |  | 
5 | OCC1=CC[C@@H]2C(CO)=CO[C@@H](OC3CCCCO3)[C@H]12 (stereo partly drawn) [Definite Example 17, (1S, 4aS, 7aS)-4,7-bis (hydroxymethyl)-1,4a, 5,7a-tetrahydro-1-(2-tetrahydropyranyloxy)cyclopenta[c]pyran] |  |  |  |  |  |  | Bile secretion amount, percentage of the hour before dose (bile secretion; 0-1 hour after dose, control 82.9, Table 10): 115.7%; Bile secretion amount, percentage of the hour before dose (bile secretion; 1-2 hour after dose, control 74.1, Table 10): 77.3%; Bile secretion amount, percentage of the hour before dose (bile secretion; 2-3 hour after dose, control 66.1, Table 10): 62.9%; Bile secretion amount, percentage of the hour before dose (bile secretion; 3-4 hour after dose, control 59.8, Table 10): 54.0%; Bile secretion amount, percentage of the hour before dose (bile secretion; 4-5 hour after dose, control 53.3, Table 10): 47.2%
6 | COC(=O)C1=COC(=O)[C@@H]2C(CO[Si](C)(C)C(C)(C)C)=CC[C@H]12 [Definite Example 19] | 355 |  |  |  |  |  | 
7 | COC(=O)C1=COC(=O)[C@@H]2C(CO)=CC[C@H]12 [Definite Example 20, methyl (4aS, 7aS)-1,4a, 5,7a-tetrahydro-7-(hydroxymethyl)-1-oxocyclopenta[c]pyran-4-carboxylate] |  | 82.6 | 66.8 | 55.1 | 48.6 | 42.8 | 
8 | COC(=O)C1=COC(=O)[C@@H]2C(CO[Si](c3ccccc3)(c3ccccc3)C(C)(C)C)=CC[C@H]12 [Definite Example 28, methyl (4aS, 7aS)-7-[(tert-butyldiphenylsilyloxy)methyl]-1,4a, 5,7a-tetrahydro-1-oxocyclopenta[c]pyran-4-carboxylate] | 406 |  |  |  |  |  | 
9 | COC(=O)C1=COC(O)[C@H]2[C@@H]1CC1OC12C (stereo partly drawn) [Definite Example 35, methyl (4aS, 7aS)-6,7-epoxy-1,4a,5,6,7,7a-hexahydro-1-hydroxy-7-methylcyclopenta[c]pyran-4-carboxylate] |  |  |  |  |  |  | Bile secretion amount, percentage of the hour before dose (bile secretion; 0-1 hour after dose, control 87.7, Table 7): 110.4%; Bile secretion amount, percentage of the hour before dose (bile secretion; 1-2 hour after dose, control 75.3, Table 7): 85.2%; Bile secretion amount, percentage of the hour before dose (bile secretion; 2-3 hour after dose, control 65.0, Table 7): 71.4%; Bile secretion amount, percentage of the hour before dose (bile secretion; 3-4 hour after dose, control 58.7, Table 7): 61.1%; Bile secretion amount, percentage of the hour before dose (bile secretion; 4-5 hour after dose, control 51.8, Table 7): 53.5%
